Experiments:
[1] = target: T1, human norepinephrine transporter (Homo sapiens, UniProt P23975); experiment: hNET receptor binding ([125I]-RTI-55 radioligand binding); details: membranes of HEK-293 cells transfected with human norepinephrine transporter, IC50 converted to Ki by Cheng-Prusoff, read-out: hNET (Ki)
T1 construct: host or cells: HEK-293
From the text: (§1) The ability of the compounds of this invention to bind to the hNET and serotonin SERT receptor can be determined using conventional radiolig and receptor binding assays. The receptors can be heterologously expressed in cell lines and experiments conducted in membrane preparations from the cell lines using procedures outlined below. IC50 concentrations can be determined by nonlinear regression of concentration-dependent reduction in specific binding. The Cheng-Prussoff equation can be used to convert the IC50 to Ki concentrations.
Cell pastes of HEK-293 cells transfected with the human norepinephrine transporter were supplied by the Pfizer Ann Arbor Protein Expression and Production group. […] Aliquots of membranes (5 mg/ml protein) were stored in liquid nitrogen until used.
(§2) The reaction was incubated by gentle agitation for 90 min at room temperature and was terminated by filtration through Whatman GF/C filter plates using a Brandel 96-well plate harvester. […] Test compounds were run in duplicate, and specific binding was defined as the difference between binding in the presence and absence of 10 μM desipramine.
(§3) Excel and GraphPad Prism software were used for data calculation and analysis. IC50 values were converted to Ki values using the Cheng-Prusoff equation.

[2] = target: T2, human seritonin transporter (Homo sapiens, UniProt P31645); experiment: hSERT receptor binding ([125I]-RTI-55 radioligand binding); details: membranes of HEK-293 cells transfected with human seritonin transporter, IC50 converted to Ki by Cheng-Prusoff, read-out: SERT (Ki)
T2 construct: host or cells: HEK-293
From the text: as §1
Cell pastes of HEK-293 cells transfected with the human seritonin transporter were supplied by the Pfizer Ann Arbor Protein Expression and Production group. […] Aliquots of membranes (5 mg/ml protein) were stored in liquid nitrogen until used.
as §2, with “[…] citalopram.” for “μM desipramine.”
as §3

T2 sequence (P31645 whole entry): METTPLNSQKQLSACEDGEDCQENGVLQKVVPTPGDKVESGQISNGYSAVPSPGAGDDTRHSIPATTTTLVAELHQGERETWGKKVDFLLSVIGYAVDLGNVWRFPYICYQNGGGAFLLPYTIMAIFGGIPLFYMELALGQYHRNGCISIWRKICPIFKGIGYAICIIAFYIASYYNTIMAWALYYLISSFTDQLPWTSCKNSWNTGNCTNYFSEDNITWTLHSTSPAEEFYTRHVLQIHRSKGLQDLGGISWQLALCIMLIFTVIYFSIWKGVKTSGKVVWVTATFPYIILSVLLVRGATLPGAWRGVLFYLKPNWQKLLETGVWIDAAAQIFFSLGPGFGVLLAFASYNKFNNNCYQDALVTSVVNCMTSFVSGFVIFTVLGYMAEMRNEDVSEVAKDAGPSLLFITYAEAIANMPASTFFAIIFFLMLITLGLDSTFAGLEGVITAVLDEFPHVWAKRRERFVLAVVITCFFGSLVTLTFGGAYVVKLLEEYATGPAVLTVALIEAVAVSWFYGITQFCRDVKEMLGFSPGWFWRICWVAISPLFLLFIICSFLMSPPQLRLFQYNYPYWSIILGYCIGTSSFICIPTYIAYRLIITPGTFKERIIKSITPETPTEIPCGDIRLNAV
T1 sequence (P23975 whole entry): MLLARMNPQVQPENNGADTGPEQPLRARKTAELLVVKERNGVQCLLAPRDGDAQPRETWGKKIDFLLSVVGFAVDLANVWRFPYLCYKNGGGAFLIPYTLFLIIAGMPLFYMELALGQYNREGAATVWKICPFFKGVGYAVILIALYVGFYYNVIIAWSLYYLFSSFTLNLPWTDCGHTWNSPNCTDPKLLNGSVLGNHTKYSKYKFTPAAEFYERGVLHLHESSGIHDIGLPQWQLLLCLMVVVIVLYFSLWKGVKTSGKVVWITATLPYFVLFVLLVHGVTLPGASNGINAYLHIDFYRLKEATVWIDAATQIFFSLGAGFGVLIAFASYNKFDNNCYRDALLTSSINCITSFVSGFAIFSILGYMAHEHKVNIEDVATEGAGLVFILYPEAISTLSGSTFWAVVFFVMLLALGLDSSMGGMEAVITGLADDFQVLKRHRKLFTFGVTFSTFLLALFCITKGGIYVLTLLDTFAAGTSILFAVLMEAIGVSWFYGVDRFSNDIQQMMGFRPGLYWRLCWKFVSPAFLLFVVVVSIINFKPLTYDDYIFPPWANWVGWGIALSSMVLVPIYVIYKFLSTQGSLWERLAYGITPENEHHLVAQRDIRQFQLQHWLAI

SMILES | Ki [1] | Ki [2]
Fc1ccccc1OC(c1cccnc1)[C@@H]1CNCCO1 (mixture of isomers) [Example 23, (S)-2-[(S)-(2-Fluorophenoxy)-pyridin-3-yl-methyl]-morpholine] | 51 nM | 2630 nM
COc1cccc(F)c1OC(c1cccnc1)[C@H]1CNCCO1 (mixture of isomers) [Example 31, (2R,3R) and (R)-2-[(S)-(2-Fluoro-6-methoxy-phenoxy)-pyridin-3-yl-methyl]-morpholine] | 85 nM | 348 nM
Fc1ccc(OC(C2CC2)[C@@H]2CNCCO2)c(F)c1 (mixture of isomers) [Example 99, (2S)-2-[cyclopropyl(2,4-difluorophenoxy)methyl]morpholine] | 880 nM | 1270 nM
Fc1cccc(F)c1OC(Cc1ccccc1)[C@@H]1CNCCO1 (mixture of isomers) [Example 101, (2S)-2-[1-(2,6-difluorophenoxy)-2-phenylethyl]morpholine] | 66 nM | 912 nM
CCCC(Oc1ccccc1OCC)[C@@H]1CNCCO1 (mixture of isomers) [Example 104, (2S)-2-[(1S)-1-(2-ethoxyphenoxy)butyl]morpholine] | 2390 nM | 9790 nM
CCOc1ccccc1OC(CC(C)C)[C@@H]1CNCCO1 (mixture of isomers) [Example 105, (2S)-2-[(1S)-1-(2-ethoxyphenoxy)-3-methylbutyl]morpholine] | 1500 nM | 5590 nM
CCOc1ccccc1OC(CC)[C@@H]1CNCCO1 (mixture of isomers) [Example 106] | 54 nM | ≥ 10000 nM
CCOc1ncccc1OC(CC)[C@@H]1CNCCO1 (mixture of isomers) [Example 136, (2S)-2-{1-[(2-ethoxypyridin-3-yl)oxy]propyl}morpholine] | 102 nM | 6140 nM
Fc1cccc(F)c1OC(c1cc2ccccc2o1)[C@@H]1CNCCO1 (mixture of isomers) [Example 143, (2S)-2-[1-benzofuran-2-yl(2,6-difluorophenoxy)methyl]morpholine] | 896 nM | 3320 nM
COc1cccc(F)c1OC(c1cccnc1)[C@H]1CNCCO1 (mixture of isomers) [Example 202, (2R)-2-[(2-fluoro-6-methoxyphenoxy)(pyridin-3-yl)methyl]morpholine] | 45 nM | 722 nM
Cc1ccccc1-c1ccccc1OCC1CNCCO1 (racemic) [Example 88, 2-(2′-Methyl-biphenyl-2-yloxymethyl)-morpholine] | 633 nM | ≥ 10000 nM
N#Cc1ccccc1O[C@@H](c1ccccn1)[C@@H]1CNCCO1 (single isomer, unassigned) [Example 22 (2S, 3R)] | 4820 nM | 6670 nM
CCOc1ccccc1O[C@H](c1cccnc1)[C@@H]1CNCCO1 (single isomer, unassigned) [Example 25] | 124 nM | ≥ 10000 nM
Fc1ccccc1OC(c1ccccn1)[C@@H]1CNCCO1 (single isomer, unassigned) [Example 121] | 470 nM | ≥ 10000 nM
Fc1ccc(OC(c2cccnc2)C2CNCCO2)c(Cl)c1 (stereo in doubt) [Example 19, (S)-2-[(R)-(2-Chloro-4-fluoro-phenoxy)-pyridin-3-yl-methyl]-morpholine] | 1020 nM | 74 nM
Fc1ccc(Oc2nccnc2OCC2CNCCO2)cc1 (stereo in doubt) [Example 78, (S)-2-[3-(4-Fluoro-phenoxy)-pyrazin-2-yloxymethyl]-morpholine] | 7970 nM | ≥ 10000 nM
CCOc1ccccc1OC(c1cccc[n+]1[O-])[C@@H]1CNCCO1 (stereo in doubt) [Example 100, (2S)-2-[(S)-(2-ethoxyphenoxy)(1-oxidopyridin-2-yl)methyl]morpholine] | 152 nM | ≥ 10000 nM
CC(C)Cc1ccccc1O[C@@H](c1ccccc1)[C@@H]1CNCCO1 [Example 3, (S)-2-[(S)-(2-isobutyl-phenoxy)-phenyl-methyl]-morpholine] | 33 nM | 1580 nM
c1ccc([C@H](Oc2ccccc2-c2ccncc2)[C@@H]2CNCCO2)cc1 [Example 10, (S)-2-[(S)-Phenyl-(2-pyridin-4-yl-phenoxy)-methyl]-morpholine] | 689 nM | ≥ 10000 nM

Stronger by Ki [1], values ahead:

Ki [1] | Ki [2] | SMILES
18 nM | ≥ 10000 nM | Cc1coc(C(Oc2c(F)cccc2F)[C@@H]2CNCCO2)n1 (mixture of isomers) [Example 134, (2S)-2-[(2,6-difluorophenoxy)(4-methyl-1,3-oxazol-2-yl)methyl]morpholine]
20 nM | 3700 nM | Fc1cccc(F)c1OC(C1=CCCC1)[C@@H]1CNCCO1 (mixture of isomers) [Example 146, (2S)-2-[(S)-cyclopent-1-en-1-yl(2,6-difluorophenoxy)methyl]morpholine]
10 nM | 7060 nM | CCOc1ccccc1OC(c1ncco1)[C@@H]1CNCCO1 (mixture of isomers) [Example 195, (S)-2-[(2-ethoxyphenoxy)(1,3-oxazol-2-yl)methyl]morpholine]
9 nM | ≥ 10000 nM | Fc1cccc(F)c1OC(c1ncco1)[C@@H]1CNCCO1 (mixture of isomers) [Example 196, (S)-2-[(2,6-difluorophenoxy)(1,3-oxazol-2-yl)methyl]morpholine]
22 nM | 849 nM | Cc1ccc(-c2cc(F)ccc2OCC2CNCCO2)cc1 (single isomer, unassigned) [Example 75]
10 nM | ≥ 10000 nM | Fc1ccccc1OC(c1ccccn1)[C@@H]1CNCCO1 (single isomer, unassigned) [Example 120]
10 nM | 45 nM | c1ccc(C(Oc2ccc3ccoc3c2)C2CNCCO2)cc1 (stereo in doubt) [Example 45, (R)-2-[(S)-(Benzofuran-6-yloxy)-phenyl-methyl]-morpholine]
11 nM | 818 nM | CCOc1ccccc1OC(c1cccc(F)c1)C1CNCCO1 (stereo in doubt) [Example 70, (R)-2-[(S)-(2-Ethoxy-phenoxy)-(3-fluoro-phenyl)-methyl]-morpholine]
6 nM | 460 nM | Fc1cccc(C2CC2)c1O[C@@H](c1ccccc1)C1CNCCO1 (stereo in doubt) [Example 184, (2S)-2-[(S)-(2-cyclopropyl-6-fluorophenoxy)(phenyl)methyl]morpholine]
9.9 nM | 3940 nM | FC(F)(F)Oc1ccccc1O[C@@H](c1ccccc1)[C@@H]1CNCCO1 [Example 1, (S)-2-[(S)-Phenyl-(2-trifluoromethoxy-phenoxy)-methyl]-morpholine]
6.3 nM | 564 nM | CCSc1ccccc1O[C@@H](c1ccccc1)[C@@H]1CNCCO1 [Example 2, (S)-2-[(S)-(2-Ethylsulfanyl-phenoxy)-phenyl-methyl]-morpholine]
1.6 nM | 708 nM | Brc1ccccc1O[C@@H](c1ccccc1)[C@@H]1CNCCO1 [Example 4, (S)-2-[(S)-(2-Bromo-phenoxy)-phenyl-methyl]-morpholine]
13 nM | 1180 nM | C=Cc1ccccc1O[C@@H](c1ccccc1)[C@@H]1CNCCO1 [Example 5, (S)-2-[(S)-Phenyl-(2-vinyl-phenoxy)-methyl]-morpholine]
17 nM | 6610 nM | COCc1ccccc1O[C@@H](c1ccccc1)[C@@H]1CNCCO1 [Example 7, (S)-2-[(S)-(2-Methoxymethyl-phenoxy)-phenyl-methyl]-morpholine]
4.2 nM | 4710 nM | FC(F)(F)c1ccccc1O[C@@H](c1ccccc1)[C@@H]1CNCCO1 [Example 8, (S)-2-[(S)-Phenyl-(2-trifluoromethyl-phenoxy)-methyl]-morpholine]
15 nM | 967 nM | c1ccc(Cc2ccccc2O[C@@H](c2ccccc2)[C@@H]2CNCCO2)cc1 [Example 9, (S)-2-[(S)-(2-Benzyl-phenoxy)-phenyl-methyl]-morpholine]
1.8 nM | 452 nM | c1ccc([C@H](Oc2ccccc2C2CC2)[C@@H]2CNCCO2)cc1 [Example 11, (S)-2-[(S)-(2-Cyclopropyl-phenoxy)-phenyl-methyl]-morpholine]
6.7 nM | 6.4 nM | c1ccc([C@H](Oc2cccc3ccccc23)[C@@H]2CNCCO2)cc1 [Example 12, (S)-2-[(S)-(Naphthalen-1-yloxy)-phenyl-methyl]-morpholine]
18 nM | 4100 nM | c1ccc([C@H](Oc2ccccc2-c2cccnc2)[C@@H]2CNCCO2)cc1 [Example 13, (S)-2-[(S)-Phenyl-(2-pyridin-3-yl-phenoxy)-methyl]-morpholine]
12 nM | – | N#Cc1ccccc1O[C@@H](c1ccccn1)[C@@H]1CNCCO1 [Example 22 (2S, 3S), (2S,3S)-2-(Morpholin-2-yl-pyridin-2-yl-methoxy)-benzonitrile]
